As usually defined, the melting point is the temperature of the solid-liquid transition. Turning to `COc1ccc(-c2[nH]nc3c2C(=O)c2c(NC(=O)CN4CCN(CCO)CC4)cccc2-3)cc1` [Example XXVIII, 3-(4-methoxyphenyl)-5-(4-(2-hydroxyethyl)piperazinoacetamido)indeno[1,2-c]pyrazol-4-one], the melting point is above 300 °C.

`COc1ccc(-c2[nH]nc3c2C(=O)c2c(NC(=O)CN4CCC(CN)CC4)cccc2-3)cc1` [Example XXX, 3-(4-methoxyphenyl)-5-(4-(aminomethyl)piperidinoacetamido)indeno[1,2-c]pyrazol-4-one] gave a melting point above 300 °C.

In turn, `CCNCC(=O)Nc1cccc2c1C(=O)c1c-2n[nH]c1-c1ccc(OC)cc1` [Example XXXI, 3-(4-methoxyphenyl)-5-(ethylaminoacetamido)indeno[1,2-c]pyrazol-4-one] came in with a melting point of 250 °C.

The molecule `COc1ccc(-c2[nH]nc3c2C(=O)c2c(NC(=O)CN4CCSCC4)cccc2-3)cc1` [Example XXXII, 3-(4-methoxyphenyl)-5-(thiomorpholinoacetamido)indeno[1,2-c]pyrazol-4-one] registered a melting point of 298 °C.

In turn, `COc1ccc(-c2[nH]nc3c2C(=O)c2c(NC(=O)CN4CCOCC4)cccc2-3)cc1` [Example XXXIII, 3-(4-methoxyphenyl)-5-(morpholinoacetamido)indeno[1,2-c]pyrazol-4-one] returned a melting point of 295 °C.

With `COc1ccc(-c2[nH]nc3c2C(=O)c2c(NC(=O)CN4CCCC4)cccc2-3)cc1` [Example XXXIV, 3-(4-methoxyphenyl)-5-(pyrrolidinoacetamido)indeno[1,2-c]pyrazol-4-one], the melting point came out at 279 °C.

Regarding `COc1ccc(-c2[nH]nc3c2C(=O)c2c(NC(=O)Cc4ccc(NC(=O)CN(C)C)cc4)cccc2-3)cc1` [Example XXXIX, 3-(4-methoxyphenyl)-5-((4-((N,N-dimethylamino)methylcarbonylamino)phenyl)acetamido) indeno[1,2-c]pyrazol-4-one], the melting point is above 300 °C.

With `COc1ccc(-c2[nH]nc3c2C(=O)c2c(NC(=O)Cc4ccc(NC(C)=O)cc4)cccc2-3)cc1` [Example XXXVI, 3-(4-methoxyphenyl)-5-((4-acetamidophenyl)acetamido)indeno[1,2-c]pyrazol-4-one], the melting point is 268 °C.

Turning to `COC(=O)Nc1ccc(CC(=O)Nc2cccc3c2C(=O)c2c-3n[nH]c2-c2ccc(OC)cc2)cc1` [Example XXXVII, 3-(4-methoxyphenyl)-5-((4-(methoxycarbonylamino)phenyl)acetamido) indeno[1,2-c]pyrazol-4-one], the melting point worked out at 257 °C.

`COc1ccc(-c2[nH]nc3c2C(=O)c2c(NC(=O)Cc4ccc(NC(=O)CN)cc4)cccc2-3)cc1` [Example XXXVIII, 3-(4-methoxyphenyl)-5-((4-(aminomethylcarbonylamino)phenyl)acetamido) indeno[1,2-c]pyrazol-4-one] registered a melting point of 228 °C.

Source of the values: patent publication US6407103B2, “Indeno [1,2-c] pyrazol-4-ones and their uses” (Bristol-Myers Squibb Pharma Company, priority 1998, dated 2002).
